Experimental data reported in DBAASP.
Values after ≈ are worked out from the molar mass of the structure shown. Values belong to the molecule of their own block, whether it stands above or below them.

Key:
Experiment in all cases: ≥ marks a high value that may be exact or a test limit, other limits are often not marked, values filed in µg/mL are converted to µM
[1] = test system: Staphylococcus aureus USA 300
[2] = test system: Pseudomonas aeruginosa ATCC 27853
[3] = test system: Acinetobacter baumannii 4-MRGN
Enterococcus faecium = test system: Enterococcus faecium
[4] = test system: Escherichia coli ATCC 25922
[5] = test system: Bacillus subtilis ATCC 6633
[6] = test system: Salmonella enterica subsp. enterica serovar Enteritidis BNCC 103134
[7] = test system: Staphylococcus aureus ATCC 25923
[8] = test system: Escherichia coli O157:H7 30328
[9] = test system: Escherichia coli 0143 EIEC7
[10] = test system: Proteus mirabilis ATCC 25933
Escherichia coli = test system: Escherichia coli
[11] = test system: Escherichia coli AX-054-1-3
[12] = test system: Candida albicans ATCC 90028
[13] = test system: Staphylococcus epidermidis RP62A
[14] = test system: Enterococcus faecalis ATCC 29212
[15] = test system: Escherichia coli 0164 EIEC6
[16] = test system: Klebsiella pneumoniae KK3 9904
Escherichia coli U7794 = test system: Escherichia coli U7794
[17] = test system: Escherichia coli AX-109-2-3
Escherichia coli U7103 = test system: Escherichia coli U7103
[18] = test system: Escherichia coli 0112 EIEC27
[19] = test system: Escherichia coli O157:H7 282
[20] = test system: Escherichia coli O6:K15:H31 536
Staphylococcus aureus = test system: Staphylococcus aureus
[21] = test system: Enterobacter cloacae NHTCC 53001
[22] = test system: Escherichia coli 0152 EIEC1
[23] = test system: Escherichia coli AX-100-3-1
[24] = test system: Staphylococcus aureus NCTC 8325
Candida albicans = test system: Candida albicans
[25] = test system: Escherichia coli ATCC 35218
[26] = test system: Escherichia coli O157:H7 734/94
[27] = test system: Escherichia coli O157:H7 CB6392
[28] = test system: Escherichia coli AX-128-3-3
[29] = test system: Escherichia coli O26:H11 3
[30] = test system: Escherichia coli 0112 EIEC26
[31] = test system: Escherichia coli O26:H- CB6418
[32] = test system: Pluralibacter gergoviae MTCC 3826
[33] = test system: Salmonella enterica MTCC 9844
[34] = test system: Proteus vulgaris MTCC 1771
[35] = test system: Klebsiella aerogenes MTCC 111
[36] = test system: Haemophilus influenzae MTCC 621
[37] = test system: Proteus mirabilis MTCC 3158
[38] = test system: Shigella boydii MTCC 11947
[39] = test system: Klebsiella oxytoca MTCC 2275
[40] = test system: Shigella flexneri MTCC 1457
[41] = test system: Citrobacter koseri MTCC 1657
[42] = test system: Stenotrophomonas maltophilia MTCC 1890
[43] = test system: Citrobacter freundii MTCC 1658
[44] = test system: Staphylococcus haemolyticus MTCC 3383
[45] = test system: Salmonella enterica subsp. enterica serovar Typhimurium ATCC 14028
[46] = test system: Vibrio cholerae MTCC 3904
[47] = test system: Corynebacterium glutamicum MTCC 2679
[48] = test system: Enterococcus faecalis MTCC 439
[49] = test system: Alcaligenes faecalis MTCC 1937
[50] = test system: Bordetella bronchiseptica MTCC 6837
[51] = test system: Escherichia coli K12 MG1655
[52] = test system: Alkalihalobacillus alcalophilus MTCC 860
[53] = test system: Acinetobacter baumannii MTCC 9829
[54] = test system: Klebsiella pneumoniae MTCC 7407
[55] = test system: Staphylococcus aureus MTCC 3160
[56] = test system: Pseudomonas aeruginosa MTCC 3542

MIC [1]: ≥ 50 µM
MIC [2]: 50 µM (≈ 51.4 µg/mL)
MIC [3]: 25 µM (≈ 25.7 µg/mL)
MIC (Enterococcus faecium): 25 µM (≈ 25.7 µg/mL)
Structure (SMILES): C[C@H](N)C(=O)N[C@H](C(=O)N[C@H]1CSSC[C@@H](C(=O)N[C@@H](CCCN=C(N)N)C(=O)N[C@H](C(=O)NCC(=O)N[C@@H](CCCN=C(N)N)C(=O)O)[C@@H](C)O)NC(=O)[C@H](Cc2ccc(O)cc2)NC1=O)[C@@H](C)O [ATCYCRTGR]

MIC [4]: 100 µM (≈ 63 µg/mL)
MIC [5]: ≥ 150 µM
MIC [6]: ≥ 150 µM
MIC [7]: 100 µM (≈ 63 µg/mL)
Structure (SMILES): CC(C)[C@H](NC(=O)[C@H](C)NC(=O)[C@H](CCCN=C(N)N)NC(=O)[C@H](CC(=O)O)NC(=O)[C@@H](NC(=O)[C@H](C)N)C(C)C)C(=O)O [AVDRAV]

MIC [8]: 10 µM (≈ 26.5 µg/mL)
MIC [9]: 20 µM (≈ 53 µg/mL)
MIC [10]: ≥ 100 µM
MIC (Escherichia coli): 2 µM (≈ 5.3 µg/mL)
MIC [11]: 20 µM (≈ 53 µg/mL)
MIC [12]: ≥ 40 µM
MIC [13]: 20 µM (≈ 53 µg/mL)
MIC [14]: 20 µM (≈ 53 µg/mL)
MIC [15]: 20 µM (≈ 53 µg/mL)
MIC [4]: 20 µM (≈ 53 µg/mL)
MIC [16]: ≥ 40 µM
MIC (Escherichia coli U7794): 10 µM (≈ 26.5 µg/mL)
MIC [17]: 10 µM (≈ 26.5 µg/mL)
MIC (Escherichia coli U7103): 5 µM (≈ 13.3 µg/mL)
MIC [18]: 20 µM (≈ 53 µg/mL)
MIC [19]: 5 µM (≈ 13.3 µg/mL)
MIC [20]: 5 µM (≈ 13.3 µg/mL)
MIC [2]: 20 µM (≈ 53 µg/mL)
MIC (Staphylococcus aureus): 50 µM (≈ 133 µg/mL)
MIC [21]: 20 µM (≈ 53 µg/mL)
MIC [22]: 20 µM (≈ 53 µg/mL)
MIC [23]: 20 µM (≈ 53 µg/mL)
MIC [24]: 20 µM (≈ 53 µg/mL)
MIC (Candida albicans): 70 µM (≈ 186 µg/mL)
MIC [25]: 20 µM (≈ 53 µg/mL)
MIC [26]: 10 µM (≈ 26.5 µg/mL)
MIC [27]: 10 µM (≈ 26.5 µg/mL)
MIC [28]: 10 µM (≈ 26.5 µg/mL)
MIC [29]: 5 µM (≈ 13.3 µg/mL)
MIC [30]: ≥ 40 µM
MIC [31]: 10 µM (≈ 26.5 µg/mL)
Structure (SMILES): CC[C@@H](C)[C@H](N=C(O)[C@H](CCCCN)N=C(O)C(CS)N=C(O)C(C)N=C(O)[C@H](N=C(O)[C@@H](Cc1ccccc1)N=C(O)CN=C(O)[C@H](CC(C)C)N=C(O)CN=C(O)[C@H](N=C(O)[C@H](CCCCN)N=C(O)CN=C(O)[C@H](CC(C)C)N=C(O)[C@H](CC(=N)O)N=C(O)[C@H](CCCCN)N=C(O)[C@H](CC(C)C)N=C(O)[C@H](N=C(O)[C@H](CO)N=C(O)C(CC(C)C)N=C(O)[C@H](CCSC)N=C(O)[C@H](N)CO)C(C)C)C(C)C)C(C)C)C(O)=N[C@H](CC(=N)O)C(O)=N[C@H](CCCCN)C(O)=N[C@H](CCC(=N)O)C(O)=N[C@H](CS)C(=O)O (some centres undefined) [SMLSVLKNLGKVGLGFVACKINKQC]

Structure (SMILES): CC[C@H](C)[C@H](NC(=O)[C@H](C)NC(=O)[C@H](CCCN=C(N)N)NC(=O)[C@H](C)NC(=O)[C@H](CC(C)C)NC(=O)[C@@H](N)Cc1ccc(O)cc1)C(=O)N[C@@H](CCCN=C(N)N)C(=O)N[C@@H](CCCN=C(N)N)C(=O)N[C@H](C(=O)N[C@@H](CC(C)C)C(=O)N[C@@H](C)C(=O)N[C@@H](CCCN=C(N)N)C(=O)N[C@@H](CC(C)C)C(=O)N[C@@H](CC(C)C)C(=O)N[C@@H](CC(C)C)C(=O)O)[C@@H](C)O [YLARAIRRTLARLLL]
MIC [32]: ≥ 71.1 µM
MIC [33]: 8.89 µM (≈ 16 µg/mL)
MIC [34]: ≥ 71.1 µM
MIC [35]: 17.8 µM (≈ 32 µg/mL)
MIC [36]: 4.45 µM (≈ 8 µg/mL)
MIC [37]: ≥ 71.1 µM
MIC [38]: 17.8 µM (≈ 32 µg/mL)
MIC [39]: 8.89 µM (≈ 16 µg/mL)
MIC [40]: 4.45 µM (≈ 8 µg/mL)
MIC [41]: 8.89 µM (≈ 16 µg/mL)
MIC [42]: 8.89 µM (≈ 16 µg/mL)
MIC [43]: 8.89 µM (≈ 16 µg/mL)
MIC [44]: 8.89 µM (≈ 16 µg/mL)
MIC [45]: 17.8 µM (≈ 32 µg/mL)
MIC [46]: ≥ 35.6 µM
MIC [47]: 2.22 µM (≈ 4 µg/mL)
MIC [48]: ≥ 35.6 µM
MIC [49]: 17.8 µM (≈ 32 µg/mL)
MIC [50]: 2.22 µM (≈ 4 µg/mL)
MIC [51]: 17.8 µM (≈ 32 µg/mL)
MIC [52]: 8.89 µM (≈ 16 µg/mL)
MIC [53]: 8.89 µM (≈ 16 µg/mL)
MIC [54]: 17.8 µM (≈ 32 µg/mL)
MIC [55]: 8.89 µM (≈ 16 µg/mL)
MIC [56]: ≥ 71.1 µM
